# Laboratory results from patent US9682089B2, “Methods and compositions for stimulating reepithelialisation during wound healing” (Institut National de la Sante et de la Recherche Medicale …, priority 2010, dated 2017).
# How the values were obtained:
# [1] = tested on: keratinocyte outgrowth of skin explants; test: ex vivo wound healing assay: organotypic culture of newborn mouse skin explants, keratinocyte outgrowth; type: cell-based; conditions: 0.1 mM in culture medium, 7 days culture
# ENaC = test: real-time PCR analysis of ENaC subunit gene expression in skin of K5-MR neonates; type: in vivo, mouse; conditions: K5-MR pups; pregnant mice were given canrenoate
# Text: We took advantage of the K5-MR mouse model to question whether expression of ENaC and its main regulators may be altered by MR overexpression. Skin samples from control and K5-MR neonates were processed for real-time PCR analysis of gene expression.
smiles,measurement,setting,value
C[C@]12CCC(=O)C=C1C=C[C@@H]1[C@@H]2CC[C@@]2(C)[C@H]1CC[C@@]2(O)CCC(=O)O [potassium canrenoate],impaired keratinocyte outgrowth of the explants,[1]; skin explants from K5-MR pups (MR overexpression in basal keratinocytes),partially but significantly improved
same,keratinocyte outgrowth of the explants,[1]; skin explants from control pups,no effect
same,enhanced skin mRNA expression of all 3 subunits of ENaC (abnormal pattern of expression),ENaC,blunted
